Measured values from patent US9125430B2, “Stable and bioavailable compositions of isomers of carotenoids for skin and hair” (Nestec S.A., priority 2006, dated 2015).

Assay: Stability of pure lycopene isomers in n-hexane during storage at room temperature
Type: physicochemical
Settings: for concentration 5-Z / concentration all E / concentration x-Z / concentration 9-Z / concentration 13-Z: n-hexane; for transformation pathway during storage: storage in n-hexane
Protocol: Pure 5-Z, 9-Z, 13-Z and all-E lycopene were isolated from isomerised tomato oleoresin (submitted to 1 hour heating), by collecting the fractions containing the corresponding peaks after HPLC separation (see below the experimental conditions). Peaks were collected during two consecutive HPLC runs and the corresponding fractions were pooled.
Amount of total lycopene was determined by reverse phase HPLC on a C18 precolumn (ODS Hypersil, 5 μm, 20×4 mm; Hewlett Packard, Geneva, Switzerland) and a C18 column (Nova pak, 3.9 μm i.d.×300 mm length, Millipore, Volketswil, Switzerland). […] The mobile phase flow rate was 1.5 mL/min. Lycopene isomer profiles were determined by normal phase HPLC according to the method described by Schierle et al. (1997). Food. Chem. 59: 459. Samples of isomerized oleoresins were dissolved in n-hexane containing 50 ppm BHT and spun at maximum speed in an Eppendorf Lab centrifuge. The resulting supernatants were immediately analyzed by HPLC. The HPLC system used was a 1100 series Hewlett-Packard model equipped with an ultraviolet-visible photodiode array detector. Data were simultaneously acquired at 470 nm, 464 nm, 346 nm and 294 nm. Samples (10 μl) were separated using a combination of three Nucleosil 300-5 columns (4 mm internal diameter×250 mm length, Macherey-Nagel). […] Flow rate was 0.8 mL/min. Lycopene Z-isomers were identified according to literature data.
Amounts of lycopene isomers were calculated based on surface areas of the HPLC peaks using the same extinction coefficient as the all-E lycopene. Therefore, the lycopene concentration in products containing Z-isomers is slightly underestimated since it is recognized that the extinction coefficients of Z-isomers are lower than that of the all-E isomer. Conditions for Stability Tests
Stability of lycopene isomers was investigated both in n-hexane and in a tomato oleoresin isomerized by 4 hour heating in ethyl acetate. For this purpose, pure lycopene isomers were stored for 33 days in n-hexane at room temperature and in the absence of light, and the isomerized tomato oleoresin was kept for 55 days at room temperature in the absence of light. Total lycopene concentration and lycopene isomer profiles were measured at various time intervals during the storage.

[1] = room temperature, absence of light, 0 days
[2] = room temperature, absence of light, 1 day
[3] = room temperature, absence of light, 2 days
[4] = room temperature, absence of light, 5 days
[5] = room temperature, absence of light, 12 days
[6] = room temperature, absence of light, 33 days

Compound | concentration 5-Z [1] | concentration all E [1] | concentration x-Z [1] | concentration 5-Z [2] | concentration all E [2] | concentration x-Z [2] | concentration 5-Z [3] | concentration all E [3] | concentration x-Z [3] | concentration 5-Z [4] | concentration all E [4] | concentration x-Z [4] | concentration 5-Z [5] | concentration 9-Z [5] | concentration 13-Z [5] | concentration all E [5] | concentration x-Z [5] | concentration 5-Z [6] | concentration 9-Z [6] | concentration 13-Z [6] | further results
CC(C)=CCC\C(C)=C/C=C/C(C)=C/C=C/C(C)=C/C=C/C=C(C)/C=C/C=C(C)/C=C/C=C(\C)CCC=C(C)C [5-Z lycopene] | 95.5 % of total isomers | 1.1 % of total isomers | 3.4 % of total isomers | 84.3 % of total isomers | 2.2 % of total isomers | 13.5 % of total isomers | 76.9 % of total isomers | 2.4 % of total isomers | 20.6 % of total isomers | 68.4 % of total isomers | 3.9 % of total isomers | 27.7 % of total isomers | 65.3 % of total isomers | 0.7 % of total isomers | 1.7 % of total isomers | 5.6 % of total isomers | 26.7 % of total isomers | 53.5 % of total isomers | 2.3 % of total isomers | 2.8 % of total isomers | concentration all E [6]: 10.7 % of total isomers; concentration x-Z [6]: 30.7 % of total isomers; transformation pathway during storage: principally transformed into other Z-isomers
CC(C)=CCC/C(C)=C/C=C/C(C)=C\C=C\C(C)=C\C=C\C=C(C)\C=C\C=C(C)\C=C\C=C(/C)CCC=C(C)C [9-Z lycopene] | 1.8 % of total isomers | 4.4 % of total isomers | 0 % of total isomers | 2.1 % of total isomers | 5.8 % of total isomers | 2.8 % of total isomers | 11.6 % of total isomers | 6.0 % of total isomers | 5.9 % of total isomers | 1.5 % of total isomers | 5.6 % of total isomers | 8.6 % of total isomers | 2.3 % of total isomers | 66.5 % of total isomers | 8.2 % of total isomers | 7.0 % of total isomers | 15.9 % of total isomers | 4.1 % of total isomers | 56.0 % of total isomers | 10.5 % of total isomers | concentration 9-Z [1]: 93.3 % of total isomers; concentration 13-Z [1]: 0.6 % of total isomers; concentration 9-Z [2]: 87.1 % of total isomers; concentration 13-Z [2]: 2.3 % of total isomers; concentration 9-Z [3]: 83.5 % of total isomers; concentration 13-Z [3]: 3.1 % of total isomers; concentration 9-Z [4]: 79.2 % of total isomers; concentration 13-Z [4]: 5.2 % of total isomers; concentration all E [6]: 9.8 % of total isomers; concentration x-Z [6]: 19.7 % of total isomers; transformation pathway during storage: principally transformed into other Z-isomers
CC(C)=CCC/C(C)=C/C=C/C(C)=C/C=C/C(C)=C\C=C\C=C(C)\C=C\C=C(C)\C=C\C=C(/C)CCC=C(C)C [13-Z lycopene] | 0 % of total isomers | 2.4 % of total isomers | 1.0 % of total isomers | 0 % of total isomers | 42.6 % of total isomers | 0 % of total isomers | 0 % of total isomers | 59.8 % of total isomers | 1.5 % of total isomers | 1.9 % of total isomers | 68.9 % of total isomers | 4.3 % of total isomers | 5.3 % of total isomers | 2.6 % of total isomers | 20.8 % of total isomers | 65.5 % of total isomers | 5.8 % of total isomers | 11.7 % of total isomers | 4.2 % of total isomers | 16.9 % of total isomers | fraction of the isomer transformed / converted into other isomers (after 33 day storage in n-hexane, room temperature, absence of light): more than 80%; stability compared with the 5-Z, 9-Z and all-E isomers (both stability tests (n-hexane and tomato oleoresin)): much less stable; concentration 9-Z [1]: 0 % of total isomers; concentration 13-Z [1]: 96.6 % of total isomers; concentration 9-Z [2]: 0.4 % of total isomers; concentration 13-Z [2]: 57.0 % of total isomers; concentration 9-Z [3]: 0 % of total isomers; concentration 13-Z [3]: 38.7 % of total isomers; concentration 9-Z [4]: 1.5 % of total isomers; concentration 13-Z [4]: 23.4 % of total isomers; concentration all E [6]: 57.0 % of total isomers; concentration x-Z [6]: 10.2 % of total isomers; transformation pathway during storage: mainly converted into the all-E isomer
CC(C)=CCC/C(C)=C/C=C/C(C)=C/C=C/C(C)=C/C=C/C=C(C)/C=C/C=C(C)/C=C/C=C(\C)CCC=C(C)C [all-E lycopene] | 0.5 % of total isomers | 97.6 % of total isomers | 0.1 % of total isomers | 1.2 % of total isomers | 86.0 % of total isomers | 1.5 % of total isomers | 2.6 % of total isomers | 78.4 % of total isomers | 3.0 % of total isomers | 3.8 % of total isomers | 69.3 % of total isomers | 5.1 % of total isomers | 6.4 % of total isomers | 2.0 % of total isomers | 18.2 % of total isomers | 67.8 % of total isomers | 5.6 % of total isomers | 13.4 % of total isomers | 3.8 % of total isomers | 15.7 % of total isomers | concentration 9-Z [1]: 0.5 % of total isomers; concentration 13-Z [1]: 1.4 % of total isomers; concentration 9-Z [2]: 1.2 % of total isomers; concentration 13-Z [2]: 10.1 % of total isomers; concentration 9-Z [3]: 1.1 % of total isomers; concentration 13-Z [3]: 15.0 % of total isomers; concentration 9-Z [4]: 2.2 % of total isomers; concentration 13-Z [4]: 19.6 % of total isomers; concentration all E [6]: 58.7 % of total isomers; concentration x-Z [6]: 8.4 % of total isomers
